Measured values reported in ChEMBL document CHEMBL5247663, “Evaluating the druggability of TrmD, a potential antibacterial target, through design and microbiological profiling of a series of potent TrmD inhibitors” (Bioorg Med Chem Lett, 2023).
In brackets after ≈: the same amount, converted by molar mass.

What was measured:
[1] = molecular target: T1, tRNA (guanine-N(1)-)-methyltransferase (Escherichia coli (strain K12), UniProt P0A873); test: Inhibition of Escherichia coli TrmD
T1 sequence (P0A873 whole entry): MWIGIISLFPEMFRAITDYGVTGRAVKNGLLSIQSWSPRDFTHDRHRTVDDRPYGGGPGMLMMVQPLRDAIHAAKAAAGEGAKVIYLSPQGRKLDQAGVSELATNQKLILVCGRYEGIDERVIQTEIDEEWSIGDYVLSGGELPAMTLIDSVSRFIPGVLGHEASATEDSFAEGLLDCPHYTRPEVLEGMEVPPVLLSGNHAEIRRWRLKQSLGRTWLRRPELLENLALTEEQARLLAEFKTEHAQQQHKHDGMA

Haemophilus influenzae = test: Antibacterial activity against Haemophilus influenzae ATCC 49247 assessed as inhibition of bacterial growth; type: functional
Escherichia coli [2] = test: Antibacterial activity against efflux-defective Escherichia coli N43 deficit of AcrAB-TolC assessed as inhibition of bacterial growth in presence of 4 ug/ml membrane-permeabilising agent, polymyxin B; type: functional
Escherichia coli [3] = test: Antibacterial activity against efflux-defective Escherichia coli N43 deficit of AcrAB-TolC assessed as inhibition of bacterial growth; type: functional
[4] = Lipophilicity, logD of the compound at pH 7.4; type: physicochemical; conditions: buffer
Acinetobacter baumannii = test: Antibacterial activity against Acinetobacter baumannii NCTC 13420 assessed as inhibition of bacterial growth; type: functional
Burkholderia cepacia = test: Antibacterial activity against Burkholderia cepacia ATCC 25416 assessed as inhibition of bacterial growth; type: functional
Francisella tularensis = test: Antibacterial activity against Francisella tularensis-Schu S4 assessed as inhibition of bacterial growth; type: functional
Enterococcus faecium = test: Antibacterial activity against Enterococcus faecium ATCC 19434 assessed as inhibition of bacterial growth; type: functional
Streptococcus pneumoniae = test: Antibacterial activity against Streptococcus pneumoniae ATCC 49619 assessed as inhibition of bacterial growth; type: functional
Bacillus subtilis = test: Antibacterial activity against Bacillus subtilis ATCC 6633 assessed as inhibition of bacterial growth; type: functional
Pseudomonas aeruginosa = test: Antibacterial activity against Pseudomonas aeruginosa ATCC 27853 assessed as inhibition of bacterial growth; type: functional
[5] = tested on: Staphylococcus epidermidis; test: Antibacterial activity against Staphylococcus epidermidis ATCC 12228 assessed as inhibition of bacterial growth; type: functional
[6] = Cytotoxicity against human HepG2 cells; type: toxicity, cell-based
Coxiella burnetii = test: Antibacterial activity against Coxiella burnetii Nine Mile assessed as inhibition of bacterial growth; type: functional
Neisseria gonorrhoeae = test: Antibacterial activity against Neisseria gonorrhoeae ATCC 49226 assessed as inhibition of bacterial growth; type: functional
Moraxella catarrhalis = test: Antibacterial activity against Moraxella catarrhalis ATCC 25240 assessed as inhibition of bacterial growth; type: functional
Yersinia pestis = test: Antibacterial activity against Yersinia pestis CO92 assessed as inhibition of bacterial growth; type: functional
[7] = molecular target: T1, tRNA (guanine-N(1)-)-methyltransferase; test: Binding affinity to Escherichia coli TrmD by surface plasmon resonance assay
Escherichia coli [8] = test: Antibacterial activity against Escherichia coli W4573 harboring functional AcrAB-TolC assessed as inhibition of bacterial growth

Row | SMILES | IC50 [1] [µM] | MIC (Haemophilus influenzae) [µg/mL] | MIC (Escherichia coli [2]) [µg/mL] | MIC (Escherichia coli [3]) [µg/mL] | further results
1 | NC(=O)c1ccc2[nH]ccc2c1 | 160 |  |  |  | 
2 | NC(=O)c1ccc(N)cc1 | 670 |  |  |  | 
3 | NC(=O)c1cnc2c(ccn2CC(=O)NC2CNC2)c1 | 4.5 |  |  |  | 
4 | NC(=O)c1cnc2c(ccn2CC(=O)NC2CCNCC2)c1 | 6.5 |  |  |  | 
5 | NC(=O)c1ccc(NCc2cccc(N3CCNC(C(F)(F)F)C3)c2)nc1 (centres undefined) | > 10 |  |  |  | 
6 | NCc1ccc(Cn2ccc3cc(C(N)=O)ccc32)cc1 | 13 |  |  |  | 
7 | CC(C)(C)CNc1ccc(C(N)=O)cn1 | 0.14 |  |  |  | 
8 | NC(=O)c1ccc(NC2(c3cccc(N4CCNCC4)c3)CC2)nc1 | 0.011 | 1020 (≈ 3030 µM) | > 1020 | > 1020 | logD [4]: 1.4
9 | NCc1cccc(CNc2ccc(C(N)=O)cn2)c1 | 1.4 |  |  |  | 
10 | CC(C)[C@H]1CN(C(=O)Cn2c(C3CC3)cc3cc(C(N)=O)cnc32)CCN1 | 0.096 | 1020 (≈ 2770 µM) | > 1020 | > 1020 | 
11 | CN(C(=O)Cn1c(C2CC2)cc2cc(C(N)=O)cnc21)[C@@H]1C[C@H]2CC[C@@H](C1)N2 | 0.036 | > 512 | > 1020 | > 512 | logD [4]: 0.2
12 | NC(=O)c1cnc2c(c1)cc(C1CC1)n2CC(=O)N1CCNCC1 | 0.013 |  | > 1020 | > 1020 | MIC (Acinetobacter baumannii): > 256 µg/mL; MIC (Burkholderia cepacia): > 256 µg/mL; MIC (Francisella tularensis): > 256 µg/mL; MIC (Enterococcus faecium): > 256 µg/mL; MIC (Streptococcus pneumoniae): > 256 µg/mL; MIC (Bacillus subtilis): > 256 µg/mL; MIC (Pseudomonas aeruginosa): > 256 µg/mL; MIC [5]: > 256 µg/mL; CC50 [6]: > 256 µg/mL; MIC (Coxiella burnetii): > 64 µg/mL; MIC (Neisseria gonorrhoeae): > 256 µg/mL; MIC (Moraxella catarrhalis): > 256 µg/mL; MIC (Yersinia pestis): 256 µg/mL (≈ 782 µM); logD [4]: -0.1
13 | C[C@@H](Nc1ccc(C(N)=O)cn1)c1ccccc1 | 48 |  |  |  | 
14 | CN1CCN(C(=O)Cn2c(C3CC3)cc3cc(C(N)=O)cnc32)CC1 | 0.038 | > 1020 | > 512 | > 512 | logD [4]: 2.7
15 | NC(=O)c1ccc2nc(N)sc2c1 | 150 |  |  |  | Kd [7]: 420 µM
16 | NC(=O)c1ccc(NCc2ccccc2)nc1 | 3.2 |  |  |  | 
17 | CN(C(=O)Cn1ccc2cc(C(N)=O)cnc21)C1CCNCC1 | 0.83 |  |  |  | 
18 | CC(C)(CNc1ccc(C(N)=O)cn1)c1cccc(CN)c1 | 0.009 | 256 (≈ 858 µM) | > 1020 | > 1020 | MIC (Acinetobacter baumannii): > 256 µg/mL; MIC (Burkholderia cepacia): > 256 µg/mL; MIC (Francisella tularensis): > 256 µg/mL; MIC (Enterococcus faecium): > 256 µg/mL; MIC (Streptococcus pneumoniae): > 256 µg/mL; MIC (Bacillus subtilis): > 256 µg/mL; MIC (Pseudomonas aeruginosa): > 256 µg/mL; MIC [5]: > 256 µg/mL; CC50 [6]: > 256 µg/mL; MIC (Coxiella burnetii): > 64 µg/mL; MIC (Neisseria gonorrhoeae): > 256 µg/mL; MIC (Moraxella catarrhalis): > 256 µg/mL; MIC (Yersinia pestis): 256 µg/mL (≈ 858 µM)
19 | CN1CCC(N(C)C(=O)Cn2c(C3CC3)cc3cc(C(N)=O)cnc32)CC1 | 0.039 | > 256 | > 1020 | > 512 | 

Row | SMILES | IC50 [1] [µM] | MIC (Haemophilus influenzae) [µg/mL] | MIC (Escherichia coli [2]) [µg/mL] | MIC (Escherichia coli [3]) [µg/mL] | further results
20 | CC(C)(CNc1ccc(C(N)=O)cn1)c1ccccc1 | 0.027 | 512 (≈ 1900 µM) | 256 | 512 (≈ 1900 µM) | MIC (Acinetobacter baumannii): > 256 µg/mL; MIC (Burkholderia cepacia): > 256 µg/mL; MIC (Francisella tularensis): > 256 µg/mL; MIC (Enterococcus faecium): > 256 µg/mL; MIC (Streptococcus pneumoniae): > 256 µg/mL; MIC (Bacillus subtilis): > 256 µg/mL; MIC (Pseudomonas aeruginosa): > 256 µg/mL; MIC [5]: > 256 µg/mL; CC50 [6]: > 128 µg/mL; MIC (Coxiella burnetii): > 64 µg/mL; MIC (Neisseria gonorrhoeae): 128 µg/mL (≈ 475 µM); MIC (Moraxella catarrhalis): 128 µg/mL (≈ 475 µM); MIC (Yersinia pestis): 256 µg/mL (≈ 950 µM); logD [4]: 3
21 | NC(=O)c1ccc(NC2CCCC2)nc1 | 0.11 |  |  |  | 
22 | NC(=O)c1cnc2c(c1)cc(C1CC1)n2CC(=O)N1CCNC(=O)C1 | 0.12 | > 512 | > 1020 | > 1020 | 
23 | NC(=O)c1ccc(NC2(c3ccccc3)CC2)nc1 | 0.27 |  |  |  | 
24 | NCc1ccc(Cn2ccc3cc(C(N)=O)cnc32)cc1 | 1.9 |  |  |  | 
25 | NC(=O)c1ccc(N)cn1 | > 1000 |  |  |  | 
26 | C[C@H](Nc1ccc(C(N)=O)cn1)c1ccccc1 | 1.3 |  |  |  | 
27 | CC(C)(Nc1ccc(C(N)=O)cn1)c1ccccc1 | 2.1 |  |  |  | 
28 | OCc1cc(-c2cccs2)[nH]n1 | 320 |  |  |  | Kd [7]: 260 µM
29 | NCc1ccc(Cn2c(C3CC3)cc3cc(C(N)=O)cnc32)cc1 | 0.31 | > 1020 | 1020 | 1020 (≈ 3200 µM) | logD [4]: 1.4
30 | CNC(=O)Cn1ccc2cc(C(N)=O)cnc21 | 64 |  |  |  | 
31 | CC(C)(CNc1ccc(C(N)=O)cn1)c1cccc(NC2CNC2)c1 | 0.13 | > 512 | > 1020 | > 1020 | logD [4]: 1
32 | NC(=O)c1cnc2c(ccn2CC(=O)N2CCNCC2)c1 | 0.8 |  |  |  | 
33 | NC(=O)c1ccc(NCc2cccc(N3CCNCC3)c2)nc1 | 0.31 | 1020 (≈ 3290 µM) | > 1020 | > 1020 | logD [4]: 1
34 | NCc1ccc(CNc2ccc(C(N)=O)cn2)cc1 | 2.3 |  |  |  | 
35 | CN(C(=O)Cn1c(C2CC2)cc2cc(C(N)=O)cnc21)C1CCNCC1 | 0.037 | > 1020 | > 512 | > 256 | logD [4]: -0.2
36 | CC(C)(CNc1ccc(C(N)=O)cn1)c1cccc(N2CCNCC2)c1 | 0.05 | > 1020 | 1020 | 1020 (≈ 2900 µM) | logD [4]: 1.6
37 | NC(=O)c1ccc(N)nc1 [6-AMINONICOTINAMIDE] | 26 |  |  |  | Kd [7]: 1.3 µM
38 | CC[C@H]1OC(=O)[C@H](C)[C@@H](O[C@H]2C[C@@](C)(OC)[C@@H](O)[C@H](C)O2)[C@H](C)[C@@H](O[C@@H]2O[C@H](C)C[C@H](N(C)C)[C@H]2O)[C@](C)(O)C[C@@H](C)C(=O)[C@H](C)[C@@H](O)[C@]1(C)O [ERYTHROMYCIN] |  | 4 (≈ 5.45 µM) | 0.5 | 8 (≈ 10.9 µM) | MIC (Escherichia coli [8]): 64 µg/mL (≈ 87.2 µM)
